The values below come from PubChem BioAssay AID463199 (Broad Institute, 2010).

The assay relates to S. cerevisiae Burl-1 ts mutant growth, BacTiter-Glo, 38.5C 24 h. Description: growth induction of Burl-1 ts yeast mutant, dose response, counter-screen for SUMOylation pathway inhibitor project, whole organism, S. cerevisiae, luminescence (AID 463199). On the technique in general: The purpose of a counterscreen is to sort out artefacts and off-target activity.

SMILES strings stand for the structures. Active and inactive are the calls of the source.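 Rule for the calls: active = AC50, the dose giving half-maximal effect, exceeds a fixed cutoff for a compound that rescues yeast growth under heat; inactive = the rest, inconclusive results apart.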

One may read the AC50 as the concentration giving half of the maximal activity seen. With `COc1cc(C(=O)NCCC2=CCCCC2)cc(OC)c1OC`, the AC50 is > 42 µM (inactive).

On to `CC1CN(C(=O)c2cc([N+](=O)[O-])cc([N+](=O)[O-])c2)CC(C)O1` (configuration not stated), for which the AC50 is > 42 µM (inactive).

On to `COc1cc(C(=O)COC(=O)c2cc([N+](=O)[O-])ccc2N2CCOCC2)ccc1OC(F)F`, for which the AC50 is > 42 µM (inactive).

As for `O=C(N/N=C/c1ccc(Cl)s1)c1ccccc1[N+](=O)[O-]`, the AC50 was > 42 µM (inactive).

As to `CCOC(=O)c1c(C)n(C)c2cc(-c3ccc(C)cc3)c(O)cc12`, the AC50 was > 42 µM (inactive).

For the compound `COC(=O)C1(Cc2ccc(O)cc2)OC(=O)C(O)=C1c1ccc(O)cc1` (configuration not stated), the AC50 was > 42 µM (inactive).

Turning to `CCNC(=S)Nc1ccc(C)c(S(=O)(=O)Nc2ccccc2OC)c1`, the AC50 is > 42 µM (inactive).

Consider `Cn1c(=O)c2c(nc(N/N=C/c3ccc(OC(=O)c4ccco4)cc3)n2Cc2ccccc2Cl)n(C)c1=O`, for which the AC50 is > 42 µM (inactive).

For `C/C(O)=C(\N=Nc1cc(C)ccc1O)C(N)=O`, the AC50 is > 42 µM (inactive).

In the case of `COc1ccccc1C1NC(=O)CS1` (configuration not stated), the AC50 is > 42 µM (inactive).

With `COC(=O)C12CCC3(SCCS3)C(C(=O)OC)(CCC13SCCS3)C2`, the AC50 was > 42 µM (inactive).

Consider `COc1ccc2nc(SCC(=O)N(C)CC(=O)Nc3ccc(F)cc3)[nH]c2c1`, for which the AC50 was > 42 µM (inactive).

`COc1ccc(-c2[nH]nc3c2C(c2ccncc2)C(C#N)=C(N)O3)cc1` (configuration not stated): the AC50 was > 42 µM (inactive).

As to `Cc1ccnc(NC(=O)c2ccc(Br)s2)c1`, the AC50 is > 42 µM (inactive).

With `CC1=CC2=NC(=O)/C(=C\c3cc(C)n(-c4ccccc4)c3C)C(=N)N2O1`, the AC50 is > 42 µM (inactive).

`Cc1c(Cl)cccc1NC(=O)Cn1c(CCC(=O)O)ccc1-c1ccccc1`: the AC50 was > 42 µM (inactive).

With `O=C1CCc2cc(S(=O)(=O)N3CCC(C(=O)NC4CCCC4)CC3)ccc2N1`, the AC50 was > 42 µM (inactive).

As to `C=CCNC(=O)NC(=O)COC(=O)CCCSc1nc2ccccc2[nH]1`, the AC50 is > 42 µM (inactive).

Turning to `CC(C(=O)NCCN1CCOCC1)(c1ccccc1)c1ccccc1`, the AC50 was > 42 µM (inactive).

Regarding `CCOC(=O)c1c(N)sc(C(=O)N2CCCC(C(N)=O)C2)c1C` (configuration not stated), the AC50 is > 42 µM (inactive).

With `O=C(c1ccc(OC2CCN(CCc3ccccc3)CC2)cc1)N1CCCC1`, the AC50 is > 42 µM (inactive).

Regarding `Cc1cc(C)n(CCCNC(=O)CN(C)S(=O)(=O)c2ccc(Cl)cc2)n1`, the AC50 was > 42 µM (inactive).

Turning to `COC(=O)c1cn(C(=O)c2cccc3ccccc23)c2ccccc12`, the AC50 was > 42 µM (inactive).

On to `Cc1cc2c(cc1C)-c1nnc(-c3ccc4ccccc4n3)n1C(C)(C)C2`, for which the AC50 was > 42 µM (inactive).

Turning to `O=C(Cc1ccc(F)cc1)Nc1nc(-c2ccc(F)cc2)cs1`, the AC50 was > 42 µM (inactive).

Turning to `COc1ccc(NC(=O)CCC(=O)Nc2nnc(C(F)(F)F)s2)c(OC)c1`, the AC50 is > 42 µM (inactive).

Regarding `CN(C(=O)C1CCCO1)c1nnc(-c2cnccn2)s1` (configuration not stated), the AC50 is > 42 µM (inactive).

Regarding `COC(=O)c1ccccc1NC(NC(=O)c1ccco1)C(=O)c1ccccc1` (configuration not stated), the AC50 was > 42 µM (inactive).

Consider `O=C1C2CCCCN2C(=O)N1CCCCN1CCN(c2ccccc2Oc2ccccc2)CC1` (configuration not stated), for which the AC50 is > 42 µM (inactive).

Consider `CC(=O)Cc1nsc(Nc2cccc(C)c2)n1`, for which the AC50 is > 42 µM (inactive).

Take `COc1c2ccoc2nc2c(OC)c(OC[C@@H](O)C(C)(C)O)ccc12`: the AC50 is > 42 µM (inactive).

For the compound `COC(=O)c1sccc1NC(=S)N1CCCCC1`, the AC50 was > 42 µM (inactive).

In the case of `O=C(c1cc(-c2ccc(Cl)c(Cl)c2)on1)N1CCN(c2ccccc2)CC1`, the AC50 was > 42 µM (inactive).

Turning to `CCOc1ccc(S(=O)(=O)N2CCC(C(=O)N3CCN(c4ccccc4)CC3)CC2)cc1`, the AC50 was > 42 µM (inactive).

For the compound `CCN1CCCC1CNC(=O)Cn1cnc2ccc(S(=O)(=O)N3CCC(C)CC3)cc2c1=O` (configuration not stated), the AC50 was > 42 µM (inactive).

Take `CC1(OC(=O)C2CCCC2)C(=O)C=C2C=C(c3ccsc3)OC=C2C1=O` (configuration not stated): the AC50 was > 42 µM (inactive).

Take `CC1(C)C=C(c2ccc(O)cc2)CC(C)(C)N1`: the AC50 is > 42 µM (inactive).

In the case of `COc1ccc(CNS(=O)(=O)c2ccc3c(c2)CCN3C(=O)C2CCC2)cc1`, the AC50 is > 42 µM (inactive).

Consider `Cc1cccc(NC(=S)NC(=O)/C=C/c2ccco2)c1`, for which the AC50 was > 42 µM (inactive).

For the compound `COc1ccc(/C=N\NC(=O)c2cc(OCC(F)(F)F)ccc2OCC(F)(F)F)cc1`, the AC50 was > 42 µM (inactive).

As for `COc1nc(-c2ccccc2)ccc1-c1noc(-c2ccccc2)n1`, the AC50 was > 42 µM (inactive).

Consider `CCN(C(=S)NCCOC)c1cccc2ccccc12`, for which the AC50 was > 42 µM (inactive).

Take `COC(=O)C(NC(C)=O)(Nc1nc2ccc(S(C)(=O)=O)cc2s1)C(F)(F)F` (configuration not stated): the AC50 is > 42 µM (inactive).

Turning to `COc1ccc2c(c1)[C@H]1[C@H](CO2)[C@H](c2ccccc2)[C@]2(C)C(=O)Nc3cc(F)ccc3C(=O)N12`, the AC50 is > 42 µM (inactive).

`C[C@]12CC[C@H]3C(=CCc4cc(O)ccc43)[C@@H]1CCC2=O`: the AC50 is > 42 µM (inactive).

For `CC(=O)N(C(C)=O)c1c(C#N)c(C)n(-c2ccccc2)c1C(=O)c1ccccc1`, the AC50 was > 42 µM (inactive).

With `CC(Oc1ccccc1)C(=O)Nc1ccccc1O` (configuration not stated), the AC50 was > 42 µM (inactive).

Regarding `CN(C)c1ccc(NC(=O)CSc2nc(N)c(C(=O)Nc3ccc(N(C)C)cc3)s2)cc1`, the AC50 is > 42 µM (inactive).

With `COc1cc(OC)cc(OC(=O)c2ccc3c(=O)n4c(nc3c2)CCC4)c1`, the AC50 was > 42 µM (inactive).

As for `COc1ccc(CN(C)C(=O)c2sccc2-c2ccccc2)c(OC)c1`, the AC50 was > 42 µM (inactive).

As for `CC1CCCC(N2C(=O)NC(NC(=O)c3ccco3)(C(F)(F)F)C2=O)C1C` (configuration not stated), the AC50 was > 42 µM (inactive).

Consider `COc1cc2c(cc1OC)C(c1ccccc1C)CC(=O)N2` (configuration not stated), for which the AC50 was > 42 µM (inactive).

`N#Cc1cc([N+](=O)[O-])cnc1NCC(O)CO` (configuration not stated): the AC50 is > 42 µM (inactive).

`COc1cc(SC)ccc1C(=O)N1CCCCCC1`: the AC50 was > 42 µM (inactive).

Turning to `COc1cc(/C=N/NC(=O)c2cccnc2)ccc1OCC(=O)N1CCOCC1`, the AC50 was > 42 µM (inactive).

Take `COC(=O)c1ccncc1C(=O)Nc1ccc(Oc2ncc(C(F)(F)F)cc2Cl)cc1`: the AC50 is > 42 µM (inactive).

On to `CC(C)C(=O)NCCSc1c[nH]c2ccccc12`, for which the AC50 is > 42 µM (inactive).

As to `C=C(C)Cn1c(SCC(=O)N/N=C/c2ccccc2OCC(=O)O)nnc1-c1ccc(Br)cc1`, the AC50 was > 42 µM (inactive).

As to `CC(=O)c1ccc(Oc2cc(C)nc(N3CCOCC3)n2)cc1`, the AC50 was > 42 µM (inactive).

As for `Nc1nc(SCc2nc3scc(-c4cccs4)c3c(=O)[nH]2)n[nH]1`, the AC50 was > 42 µM (inactive).

With `COc1cccc(C(=O)N2CCN(S(=O)(=O)Cc3ccccc3)CC2)c1OC`, the AC50 was > 42 µM (inactive).

Take `Cc1ccc(S(=O)(=O)N2[C@@H](c3ccccc3F)C(C(=O)O)=CC[C@H]2c2ccc3c(c2)OCO3)cc1`: the AC50 was > 42 µM (inactive).

In the case of `CCOc1ccc(Cl)cc1S(=O)(=O)N1CCC(C(=O)NCc2cccnc2)CC1`, the AC50 is > 42 µM (inactive).

With `COc1ccc(Cc2nnc(NCCO)[nH]c2=O)cc1`, the AC50 was > 42 µM (inactive).

With `COc1ccc(S(=O)(=O)Nc2ccc(NC(C)=O)cc2)cc1OC`, the AC50 is > 42 µM (inactive).

Turning to `COc1ccc(NC(=O)C(c2ccccc2)N2CCN(c3ccccn3)CC2)cc1Cl` (configuration not stated), the AC50 is > 42 µM (inactive).

For the compound `O=C(COC(=O)CNC(=O)c1ccc(Cl)cc1)Nc1ncc(C(F)(F)F)cc1Cl`, the AC50 is > 42 µM (inactive).

Turning to `Cc1ccc(C(=O)Nc2nc(-c3ccc(F)cc3)cs2)o1`, the AC50 was > 42 µM (inactive).

In the case of `O=C(N/C(=C/c1ccc2c(c1)OCO2)C(=O)N1CCOCC1)c1cccs1`, the AC50 is > 42 µM (inactive).

Consider `CC(C)Cc1nc(N2CCOCC2)c(C#N)c2c1CCC2`, for which the AC50 was > 42 µM (inactive).

With `O=C(COc1ncnc2c(Cl)cc(Cl)cc12)NCCC1=CCCCC1`, the AC50 is > 42 µM (inactive).

`CCOC(=O)C1CCN(CC(O)COCc2ccccc2)CC1` (configuration not stated): the AC50 is > 42 µM (inactive).

On to `Cc1sc2ncnc(Nc3ccccc3)c2c1C`, for which the AC50 is > 42 µM (inactive).

Take `COC(=O)C1(Cc2cc(-c3ccccc3)no2)CCN(C(=O)OC(C)(C)C)CC1`: the AC50 is > 42 µM (inactive).

Take `CCOc1ccc(NC(=O)CSc2nnc(Cc3csc(C)n3)o2)cc1`: the AC50 is > 42 µM (inactive).

For `C=C(Cl)COC(=O)C1C2C=CC(C2)C1C(=O)O` (configuration not stated), the AC50 is > 42 µM (inactive).

As for `CC1=Nc2ccccc2/C1=C\c1nc(-c2ccccc2)oc1O`, the AC50 is > 42 µM (inactive).

For `O=C1CCC(C(=O)N2CCN(c3ccccc3)CC2)CN1CC1CCCCC1` (configuration not stated), the AC50 is > 42 µM (inactive).

Regarding `O=C(NCCCN1CCOCC1)C1CCC(=O)N1CCc1ccccc1` (configuration not stated), the AC50 is > 42 µM (inactive).

With `COC(=O)c1ccccc1N(C)S(C)(=O)=O`, the AC50 is > 42 µM (inactive).

For `COc1ccccc1NC(=O)N1CCN(C(=O)Nc2ccccc2OC)CC1`, the AC50 was > 42 µM (inactive).

Consider `CCOc1ccc(NS(=O)(=O)c2ccc(C(=O)NCc3cccnc3)cc2)cc1`, for which the AC50 was > 42 µM (inactive).

As to `CC(=O)N1N=C(c2ccc(C(C)(C)C)cc2)OC1(C)C`, the AC50 was > 42 µM (inactive).

For `CCC(CC)NC(=O)c1oc2ccccc2c1COc1ccccc1`, the AC50 was > 42 µM (inactive).

As for `CCCc1cc(=S)n2c([nH]c3ccccc32)c1C#N`, the AC50 was > 42 µM (inactive).

Turning to `CCOc1ccc(-c2nc(C#N)c(N3CCOCC3)o2)cc1`, the AC50 was > 42 µM (inactive).

With `C/C(CC(=O)Nc1cccnc1)=N\NC(=O)C(C)Oc1ccc(Cl)cc1Cl` (configuration not stated), the AC50 was > 42 µM (inactive).
